Experimental data as given in US9018206B2, “Carboxamide compounds and their use as calpain inhibitors” (AbbVie Deutschland GmbH & Co. KG, priority 2009, dated 2015).

Experiments:
[1] = molecular target: T1, cathepsin K activated from recombinant human procathepsin K (Homo sapiens, UniProt P43235); test: Cathepsin K enzyme inhibition in vitro (kinetic fluorescence assay); assay type: biochemical; settings: Ki(cathepsin K)/Ki(calpain) ratio
T1 construct: purchased Calbiochem 342001; host or cells: E. coli
T1 sequence (P43235 115-329): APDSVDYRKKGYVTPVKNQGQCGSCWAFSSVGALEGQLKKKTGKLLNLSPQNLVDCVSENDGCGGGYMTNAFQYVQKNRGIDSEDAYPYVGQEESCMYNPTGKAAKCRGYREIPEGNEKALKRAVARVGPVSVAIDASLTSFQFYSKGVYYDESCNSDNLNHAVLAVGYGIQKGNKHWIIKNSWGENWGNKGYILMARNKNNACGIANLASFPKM
Outline: (§1)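 Kinetic AMC fluorescence (ex 390/em 460 nm), room temperature. Calpain-I 20 nM, 100 μM Suc-Leu-Tyr-AMC, imidazole/CaCl2 pH 7.3; cathepsins B 0.25 nM/100 μM Z-Phe-Arg-AMC, K 3 nM/10 μM Z-Gly-Pro-Arg-AMC, S 0.5 nM/20 μM Z-Val-Val-Arg-AMC, each MES/EDTA/cysteine pH 6.0. Ki from IC50 via Cheng-Prusoff, averaging 2–4 curves.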

[2] = molecular target: T2, cathepsin L isolated from human liver (Homo sapiens, UniProt P07711); test: Cathepsin L enzyme inhibition in vitro (kinetic fluorescence assay); assay type: biochemical; settings: Ki(cathepsin L)/Ki(calpain) ratio
T2 construct: cathepsin L—isolated from human liver; purchased Calbiochem 219402; host or cells: human liver (tissue-derived)
T2 sequence (P07711 114-333): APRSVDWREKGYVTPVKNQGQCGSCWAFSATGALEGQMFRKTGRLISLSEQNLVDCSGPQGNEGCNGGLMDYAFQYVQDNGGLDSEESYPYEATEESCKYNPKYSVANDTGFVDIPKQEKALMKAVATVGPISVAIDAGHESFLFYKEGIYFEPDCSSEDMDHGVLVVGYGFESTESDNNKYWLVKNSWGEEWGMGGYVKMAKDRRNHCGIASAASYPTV
Outline: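 Inhibition of cathepsin L isolated from human liver was measured by kinetic fluorescence (excitation 390 nm, emission 460 nm) using 1 nM enzyme and 2 μM Z-Phe-Arg-AMC substrate (Km 2 μM) in 50 mM MES, 2 mM EDTA, 0.05% Brij 35, 2.5 mM L-cysteine, pH 6.0, at room temperature. Apparent Ki values came from IC50 values via the Cheng-Prussoff relation, averaged over 2 to 4 dose-effect plots.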

[3] = molecular target: T3, calpain-I isolated from human erythrocytes (Homo sapiens, UniProt P07384); test: Calpain I enzyme inhibition in vitro (kinetic fluorescence assay); assay type: biochemical; settings: apparent Ki from IC50 (Cheng-Prussoff); 20 nM calpain-I, 100 μM Suc-Leu-Tyr-AMC, pH 7.3, room temperature
T3 construct: calpain-I—isolated from human erythrocytes; purchased Calbiochem 208713; host or cells: human erythrocytes (tissue-derived)
T3 sequence (P07384 1-714): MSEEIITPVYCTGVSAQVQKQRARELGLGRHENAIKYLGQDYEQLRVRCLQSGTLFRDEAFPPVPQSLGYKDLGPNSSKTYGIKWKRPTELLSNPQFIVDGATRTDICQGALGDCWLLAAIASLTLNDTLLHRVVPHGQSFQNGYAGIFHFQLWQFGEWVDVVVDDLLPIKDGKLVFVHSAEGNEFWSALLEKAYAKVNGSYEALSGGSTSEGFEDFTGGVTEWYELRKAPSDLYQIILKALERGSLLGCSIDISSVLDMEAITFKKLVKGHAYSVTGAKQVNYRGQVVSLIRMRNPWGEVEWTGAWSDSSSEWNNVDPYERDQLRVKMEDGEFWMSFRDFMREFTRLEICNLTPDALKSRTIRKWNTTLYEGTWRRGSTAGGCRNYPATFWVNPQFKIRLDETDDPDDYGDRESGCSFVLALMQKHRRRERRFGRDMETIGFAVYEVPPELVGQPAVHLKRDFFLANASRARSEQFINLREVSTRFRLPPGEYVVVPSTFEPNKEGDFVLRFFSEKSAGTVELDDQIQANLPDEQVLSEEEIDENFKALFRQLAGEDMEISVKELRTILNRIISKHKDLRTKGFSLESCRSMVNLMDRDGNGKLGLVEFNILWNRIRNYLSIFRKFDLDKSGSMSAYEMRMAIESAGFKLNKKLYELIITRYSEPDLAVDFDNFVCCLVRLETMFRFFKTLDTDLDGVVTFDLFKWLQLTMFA
T3 sequence (P04632 1-268 partner): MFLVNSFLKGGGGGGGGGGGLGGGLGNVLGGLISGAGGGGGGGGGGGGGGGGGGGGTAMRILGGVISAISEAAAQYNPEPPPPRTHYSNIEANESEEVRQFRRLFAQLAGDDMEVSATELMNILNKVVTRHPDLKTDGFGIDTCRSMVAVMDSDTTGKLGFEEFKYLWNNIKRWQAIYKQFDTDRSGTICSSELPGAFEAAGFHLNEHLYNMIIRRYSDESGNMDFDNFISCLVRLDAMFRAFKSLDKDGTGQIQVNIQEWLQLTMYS
Outline: as §1

[4] = Assay for determining cytosolic clearance, human liver cytosol; assay type: in vitro ADME; settings: 0.5 μM compound, 1 mg/ml human liver cytosol, 37° C., pH 7.5
Experimental: (§2) For comparison purposes data measured with human liver cytosol were contrasted with those obtained with cynomolgus monkey liver cytosol.
(§3) 0.5 μM of a compound to be tested was incubated with 1 mg/ml of human liver cytosol as well as monkey liver cytosol at 37° C. in 0.5 M of phosphate buffer at pH 7.5 while shaking (commercial sources: female cynomolgus liver cytosol from Tebu bio, human liver cytosol from BDgentest).
(§4) In each case aliquots of 65 μl were taken after 0, 5, 10 and 15 min and transferred into wells of a wellplate which were immediately filled with 130 μl of ethanol to stop the reaction. The samples were kept frozen until analysis on a LC/MS/MS system (Applied Biosystems SCIEX 4000).
(§5) Read out parameters were the loss of parent compounds, from which the half life periods (T1/2) were calculated from.
(§6) To assess the stability of the compounds tested the clearance ranges were adjusted to the hepatic plasma flow of the different species according to the following scheme:
(§7) stable=from 0 to about ⅓ of the hepatic plasma flow;
(§8) moderately stable=from about ⅓ to about ⅔ of the hepatic plasma flow;
(§9) instable=more than ⅔ of the hepatic plasma flow.
(§10) Based on this adjustment the following qualifiers were assigned to evaluate the cytosolic stabilities of the compounds tested: […]

[5] = molecular target: T4, cathepsin B isolated from human liver (Homo sapiens, UniProt P07858); test: Cathepsin B enzyme inhibition in vitro (kinetic fluorescence assay); assay type: biochemical; settings: Ki(cathepsin B)/Ki(calpain) ratio
T4 construct: cathepsin B—isolated from human liver; purchased Calbiochem 219362; host or cells: human liver (tissue-derived)
Outline: as §1

[6] = molecular target: T5, recombinant human cathepsin S (Homo sapiens, UniProt P25774); test: Cathepsin S enzyme inhibition in vitro (kinetic fluorescence assay); assay type: biochemical; settings: Ki(cathepsin S)/Ki(calpain) ratio
T5 construct: purchased Calbiochem 219343; host or cells: E. coli
T5 sequence (P25774 115-331): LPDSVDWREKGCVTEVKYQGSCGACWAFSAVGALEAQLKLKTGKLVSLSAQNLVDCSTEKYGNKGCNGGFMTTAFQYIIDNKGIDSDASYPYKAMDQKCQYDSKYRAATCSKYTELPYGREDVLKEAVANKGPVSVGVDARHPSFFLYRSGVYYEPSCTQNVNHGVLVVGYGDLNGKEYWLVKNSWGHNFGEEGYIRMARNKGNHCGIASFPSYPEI
Outline: as §1

[7] = Assay for determining cytosolic clearance, cynomolgus monkey liver cytosol; assay type: in vitro ADME; settings: 0.5 μM compound, 1 mg/ml cynomolgus monkey liver cytosol, 37° C., pH 7.5
Experimental: as §2, §3, §4, §5, §6, §7, §8, §9, §10

Row | SMILES | Sel cat. K [1] | Sel cat. L [2] | Ki [3] [nM] | human cytCL [4] | Sel cat. B [5] | Sel cat. S [6] | cyno cytCL [7]
1 | CNC(=O)C(=O)C(Cc1ccccc1)NC(=O)[C@H]1CCC(=O)N1Cc1ccccc1 (mixture of isomers) [Example 25, (2R)-1-Benzyl-N-(4-(methylamino)-3,4-dioxo-1-phenylbutan-2-yl)-5-oxopyrrolidine-2-carboxamide] | +++ (Ki(cathepsin K)/Ki(calpain) ratio of >30) | +++ (Ki(cathepsin L)/Ki(calpain) ratio of >30) | 100 to 600 | ++ (0-14 μl/min/mg) | +++ (Ki(cathepsin B)/Ki(calpain) ratio of >30) | ++ (30<Ki(cathepsin B)/Ki(calpain)≦100) | ++ (0-18 μl/min/mg)
2 | O=C(NC1CC1)C(=O)C(Cc1ccccc1)NC(=O)[C@H]1CCC(=O)N1Cc1ccccc1 (mixture of isomers) [Example 27, (2R)-1-Benzyl-N-(4-(cyclopropylamino)-3,4-dioxo-1-phenylbutan-2-yl)-5-oxopyrrolidine-2-carboxamide] | +++ (Ki(cathepsin K)/Ki(calpain) ratio of >30) | +++ (Ki(cathepsin L)/Ki(calpain) ratio of >30) | 100 to 600 | ++ (0-14 μl/min/mg) | +++ (Ki(cathepsin B)/Ki(calpain) ratio of >30) | ++ (30<Ki(cathepsin B)/Ki(calpain)≦100) | ++ (0-18 μl/min/mg)
3 | CC(C)CNC(=O)C(=O)C(Cc1ccccc1)NC(=O)[C@H]1CCC(=O)N1Cc1ccccc1 (mixture of isomers) [Example 28, (2R)-1-Benzyl-N-(4-(isobutylamino)-3,4-dioxo-1-phenylbutan-2-yl)-5-oxopyrrolidine-2-carboxamide] | +++ (Ki(cathepsin K)/Ki(calpain) ratio of >30) | +++ (Ki(cathepsin L)/Ki(calpain) ratio of >30) | 100 to 600 | ++ (0-14 μl/min/mg) | +++ (Ki(cathepsin B)/Ki(calpain) ratio of >30) | ++ (30<Ki(cathepsin B)/Ki(calpain)≦100) | ++ (0-18 μl/min/mg)
4 | CCNC(=O)C(=O)C(Cc1ccccc1)NC(=O)[C@H]1CCC(=O)N1Cc1c(OC)cccc1C(F)(F)F (mixture of isomers) [Example 42, (2R)—N-(4-(Ethylamino)-3,4-dioxo-1-phenylbutan-2-yl)-1-(2-methoxy-6-(trifluoromethyl)benzyl)-5-oxopyrrolidine-2-carboxamide] | ++ (10<Ki(cathepsin B)/Ki(calpain)≦30) | ++ (10<Ki(cathepsin B)/Ki(calpain)≦30) | – | ++ (0-14 μl/min/mg) | ++ (10<Ki(cathepsin B)/Ki(calpain)≦30) | – | ++ (0-18 μl/min/mg)
5 | O=C(NCc1ccc(C(F)(F)F)cc1)C(=O)C(Cc1ccccc1)NC(=O)[C@H]1CCC(=O)N1Cc1ccccc1 (mixture of isomers) [Example 68, (2R)-1-Benzyl-N-(3,4-dioxo-1-phenyl-4-(4-(trifluoromethyl)benzylamino)butan-2-yl)-5-oxopyrrolidine-2-carboxamide] | +++ (Ki(cathepsin K)/Ki(calpain) ratio of >30) | ++ (10<Ki(cathepsin B)/Ki(calpain)≦30) | 100 to 600 | – | +++ (Ki(cathepsin B)/Ki(calpain) ratio of >30) | +++ (Ki(cathepsin S)/Ki(calpain) ratio of >100) | ++ (0-18 μl/min/mg)
6 | NC(=O)C(=O)C(Cc1ccccc1)NC(=O)[C@H]1CCC(=O)N1Cc1ccccc1C(F)(F)F (stereo partly drawn) [Example 17, (2R)—N-(4-Amino-3,4-dioxo-1-phenylbutan-2-yl)-5-oxo-1-[2-(trifluoromethyl)benzyl]-pyrrolidine-2-carboxamide] | +++ (Ki(cathepsin K)/Ki(calpain) ratio of >30) | +++ (Ki(cathepsin L)/Ki(calpain) ratio of >30) | 50 to 100 | – | ++ (10<Ki(cathepsin B)/Ki(calpain)≦30) | +++ (Ki(cathepsin S)/Ki(calpain) ratio of >100) | –
7 | NC(=O)C(=O)C(Cc1ccccc1)NC(=O)[C@H]1CCC(=O)N1Cc1c(F)cccc1F (stereo partly drawn) [Example 51, (2R)—N-(4-Amino-3,4-dioxo-1-phenylbutan-2-yl)-5-oxo-1-(2,6-difluorobenzyl)-pyrrolidine-2-carboxamide] | +++ (Ki(cathepsin K)/Ki(calpain) ratio of >30) | ++ (10<Ki(cathepsin B)/Ki(calpain)≦30) | 50 to 100 | – | ++ (10<Ki(cathepsin B)/Ki(calpain)≦30) | +++ (Ki(cathepsin S)/Ki(calpain) ratio of >100) | –
8 | O=C(NCc1ncco1)C(=O)C(Cc1ccccc1)NC(=O)[C@H]1CCC(=O)N1Cc1ccccc1 (stereo partly drawn) [Example 64, (2R)-1-Benzyl-N-(4-(oxazol-2-ylmethylamino)-3,4-dioxo-1-phenylbutan-2-yl)-5-oxopyrrolidine-2-carboxamide] | +++ (Ki(cathepsin K)/Ki(calpain) ratio of >30) | ++ (10<Ki(cathepsin B)/Ki(calpain)≦30) | 100 to 600 | – | ++ (10<Ki(cathepsin B)/Ki(calpain)≦30) | +++ (Ki(cathepsin S)/Ki(calpain) ratio of >100) | –
